Data on one compound can be found in US6589977B1, “Pyrrole derivatives and cell death inhibitors” (Sagami Chemical Research Center, priority 1999, dated 2003).

Experiment [1] relates to cerebellar granule cells. The experiment is described as follows: Inhibition of bilirubin-induced death of cerebellar granule cells. It counts as cell-based, rats. Particulars: compound 10 μM added prior to bilirubin (10 μg/ml); after 23 hours. Here is the method: (§1) According to a known method (A Dissection and Tissue Culture Manual of the Nervous System, p. 211, 1989, Alan R, Liss, Inc.), cerebellar granule cells were isolated from the cerebellum of 7 days old rats and cultured. Namely, after conducting isolation procedures described in the above literature, the resulting cells were resuspended in DMEM containing 10% fetal bovine serum, 25 mM KCl and 2 mM glutamine, and seeded in poly-lysine coated plates. After the cells were cultured in a CO2 incubator for 48 hours according to a conventional method, cytosine-1-β-D(+)-arabinofuranoside (Ara-C) (10 μM) was added thereto, and the cell was continued to culture. The following experiments were conducted with the cells of 7 to 14 days old from the start day of the cultivation, the cells having completed neurite extension sufficiently.
Neonatal jaundice is known to induce severe brain damages by way of abnormally high concentration of bilirubin in the body. […] When the test compound 15 (10 μM) was added prior to the bilirubin addition, more than 95% of cells were alive on an observation made similarly after 23 hours.

For experiment [2], the system named is cerebellar granule cells. The experiment is described as follows: Inhibition of FCCP-induced death of cerebellar granule cells. In kind it is cell-based, rats. Particulars: compound 10 μM; FCCP (5 μM); after 2 hours. The protocol: as §1
When the test compound 15 (10 μM) coexisted prior to the FCCP addition, 80% of cells were alive on an observation similarly made after 2 hours.

The test system of experiment [3] is cerebellar granule cells. The experiment is described as follows: Inhibition of sodium azide-induced death of cerebellar granule cells. In kind it is cell-based, rats. Particulars: compound 10 μM; sodium azide (10 mM); after 2 hours. The protocol: as §1, with “After the cells were cultured in a CO2 incubator for 48 hours according to a conventional method, cytosine-1-β-D(+)-arabinofuranoside (Ara-C) (10 μM) was added thereto, and the cell was continued to culture.” left out

The test system of experiment [4] is cerebellar granule cells. The experiment is described as follows: Inhibition of antimycin A-induced death of cerebellar granule cells. In kind it is cell-based, rats. Conditions: compound 10 μM; antimycin A (5 μM); after 2 hours. Here is the method:
as §1
When the test compound 15 (10 μM) coexisted prior to the antimycin A addition, more than 95% of cells were alive on an observation made similarly after 2 hours.

For experiment [5], the system named is Porcine ovarian granulosa cells (POGC). The experiment is described as follows: Inhibition of SNP-induced apoptosis of porcine ovarian granulosa cells. In kind it is cell-based. Particulars: SNP 0.5 mM; cells observed after 18 hours. From the text: Porcine ovaries were washed with PBS buffer, and Porcine ovarian granulosa cells (POGC) were collected by aspiration from follicles with a syringe. Cell fraction was recovered as a precipitate by centrifugation of the suspension. The operation of suspending the cell fraction into PBS buffer and subjecting the resulting suspension to centrifugation was repeated three times to wash the cells. The POGC obtained as a precipitate were suspended again into a culture medium (DMEM containing 10% fetal bovine serum) and cell clumps were disrupted by pipetting. The cell suspension was passed through a mesh to remove contaminating tissue fragments, and then pipetted in 24-well plates for cell culture. The cell suspension was cultured for 2 days in a CO2 incubator according to a conventional procedure (37° C., 5% CO2). Then, the medium was refreshed to remove floating cells and the cultivation was continued further 2 to 3 days until the cells reached subconfluency (0.7 to 2×10^5 cell/well). After the attaching cells were washed with serum-free medium, they were cultured in a serum-free DMEM (containing 5 μg/mL of transferrin, and 40 ng/mL of hydrocortisone, 4 mg/mL of bovine serum albumin (BSA), 100 nM androstendione) and it was possible to continue to culture cells with relatively immature differentiation. […] The cell death was also confirmed by MTT assay. Then, various concentrations of the test compounds were added to the present culture system and the cells were observed after 18 hours.

For experiment [6], the system named is cerebellar granule cells. Briefly: Inhibition of MPPI-induced death of cerebellar granule cells (Parkinson model). In kind it is cell-based, rats. Particulars: compound 1 μM added prior to MPPI (200 μM); 15 DIV cells; after 18 hours. Here is the method:
as §1, with “The following experiments were conducted with the cells of 7 to 14 days old from the start day of the cultivation, the cells having completed neurite extension sufficiently.” left out
In Parkinson's disease the dopaminergic neurons in the substantia nigra and corpus striatum in the mid-brain are selectively destroyed. Because following administration of MPTP(1-methyl-4-phenyl-1,2,3,6-tetrahydropyridine) the similar selective destruction of the dopaminergic neurons and Parkinson's disease-like symptoms are observed, the administration system of MPTP is generally employed as an in vivo model of the onset of Parkinson's disease. […]

The test system of a further experiment is erythrocytes. Briefly: Inhibition of hydrogen peroxide-induced hemolysis of erythrocytes. In kind it is cell-based, Human. Particulars: compound 10 μM added prior to hydrogen peroxide (300 μM); after 24 hours. Here is the method: Human blood was collected and precipitated by a centrifugation (1000 rpm, 5 min) and the precipitate containing erythrocytes was washed three times with PBS and resuspended (about 5×10^8 cells/ml) with DMEM containing 10% fetal bovine serum. Cell suspensions were dispensed into a 48-well plate to become subconfluent (about 5×10^5 cells/0.5 ml/well). When hydrogen peroxide (300 μM) was added and cultivation continued for 24 hours, more than 95% of erythrocytes underwent hemolysis and become dark and ghost-like on an observation under a light microscopy.

For experiment [7], the system named is cerebellar granule cells. Briefly: Inhibition of low potassium medium-induced death of cerebellar granule cells. Conditions: compound 10 μM; low potassium medium (5 mM KCl); after 18 hours. It counts as cell-based, rats. Here is the method: as §1
It is known that neuronal cells undergo cell death when they are cultured in a medium of low potassium (Proc. Natl. Acad. Sci. U.S.A., volume 90, p 10989, 1993). […] When the test compound 1 (10 μM), the test compound 10 (10 μM), or the test compound 15 (10 μM)coexisted, 50%, 80%, and 85% of cells were respectively alive on an observation made similarly after 18 hours.

Experiment [8] deals with cerebellar granule cells. The experiment is described as follows: Inhibition of glutamate-induced death of cerebellar granule cells. Conditions: compound 10 μM; glutamate (1 mM); after 6 hours. In kind it is cell-based, rats. Here is the method: as §1
Medium of cerebellar granule cells cultured for 14 days as described in Test Example 3 was replaced with DMEM containing 10% of dialyzed fetal bovine serum and subjected to a further overnight culture. […] When the test compound 15 (10 μM) coexisted, more than 95% of cells were alive on an observation even after 6 hours.

In a further experiment the test system is Hela 3S cells. Briefly: Anti-cell death effect on Hela 3S cells cultured in Krebs Ringer Buffer. It counts as cell-based, human. Particulars: compound 10 μM. Here is the method: Hela 3S cells (culture medium: DMEM containing 10% fetal bovine serum), a cell line derived from human cervical cancer, were seeded into multi 48 well plates and cultured in a CO2 incubator according to conventional procedures. Confirming the subconfluency of a cell culture, the medium was replaced with Krebs Ringer Buffer (120 mM NaCl, […], 1 mM KH2PO4, […], 20 mM HEPES, pH 7.4, 2.57 g/L glucose, 0.05 g/L Phenol Red) and washed three times with the same buffer and cultivation continued in the same buffer. […] When the test compound 1 (10 μM) or the test compound 15 (10 μM) was added in the present culture system and cultivation continued similarly, the proportion of normal cells increased 59% or 77% respectively, and the proportion of necrosis-like cells decreased (1% or 0%, respectively), indicating the anti-cell death effects.

As to `Cc1ccc2[nH]cc(-c3cn(C)cc3-c3c[nH]c4ccc(C)cc34)c2c1` [Compound 15], the cells alive entry is “more than 95%” in the experiment on cerebellar granule cells [1]; 80% in the experiment on cerebellar granule cells [2]; “more than 95%” with cerebellar granule cells [3]; “more than 95%” with cerebellar granule cells [4]; “more than 95%” in the experiment with cerebellar granule cells [6]; 85% in the experiment on cerebellar granule cells [7]. For the same compound, in the experiment on cerebellar granule cells [8], the cells alive entry is listed as “more than 95%”. Moreover, in [5], the “MEC (Minimum effective concentration for more than 95% of inhibition of cell death)” value is 0.05 µM. Further, in the experiment on erythrocytes, the inhibition of hemolysis entry is “almost complete inhibition of hemolysis”. Moreover, the “proportion of necrosis-like cells” value in the experiment on Hela 3S cells (after 5 hours (11% without compound)) is 0%. In addition, the “proportion of normal cells” value in the experiment on Hela 3S cells (after 5 hours (42% normal without compound)) worked out at 77%.
